Patent US20060020042A1, “Memantine for the treatment of mild and mild to moderate Alzheimer's disease” (Forest Laboratories, Inc., priority 2004, published 2006)

Columns and labels:
[1] = test system: outpatients with mild-to-moderate Alzheimer's disease; experiment: ADCS-ADL in randomized, double-blind, placebo-controlled study; assay type: in vivo, human; conditions: Week 24, ITT, 20 mg/day
Method: In the study of the present invention, there were approximately 400 patients enrolled across 42 centers. Evaluation of primary efficacy was achieved by Alzheimer's Disease Assessment Scale-cognitive subscale (ADAS-cog) and the Clinician's Interview-Based Impression of Change including caregiver information (CIBIC-plus). Secondary efficacy was determined using Alzheimer's disease Cooperative Study-Activities of Daily Living (ADCS-ADL) and Neuropsychiatric Inventory (NPI) criteria. The ADCS-ADL inventory consists of 23 questions used to measure the functional capabilities of patients with dementia. These questions are selected from a larger set of 49 questions in the original ADL scale. A more common selection is of 19 questions from the same 49 question group. Each ADL item comprises a series of hierarchical sub-questions, ranging from the highest level of independent performance of each ADL to complete loss. The ADSC-ADL Inventory total score ranges from 0 (lower functioning status) to 78 (higher functioning status). A higher score indicates a better functioning status. […] Results were evaluated over seven clinical visits; at initial screening, baseline, and the end of weeks 4, 8, 12, 18 and 24. […] Descriptive statistics were calculated by visit. […]

[2] = test system: brain glucose metabolism in mild-to-moderate AD subjects; experiment: FDG PET regional brain glucose metabolism; assay type: in vivo, human; conditions: 24 weeks of 20 mg/day
Method: Drug treatment. As stated above, patients were randomized to receive 20 mg/day (10 b.i.d.) memantine or placebo for 24 weeks. PET scans were performed for 10 (5 receiving memantine and 5 receiving placebo) patients at baseline and at the end of week 24.
PET Scan Acquisition. Subjects were PET scanned at the University of California, Irvine Brain Imaging Center using a GE 2048-15B dedicated head scanner. Thirty slices at 6.5-mm intervals (15 in each of two sets) were obtained so as to cover the entire brain. Attenuation correction was performed by obtaining a transmission scan using a ^68Ge pin source. A thermosetting plastic facemask was used to hold the subject stationary during the 60 minutes of total image acquisition. Scans were reconstructed with a blank and a transmission scan. PET image count was used for study analyses and adjusted for intrasubject global differences using normalization (proportional scaling).
PET Image Methodology and Analysis. Differences in regional FDG uptake were analyzed using SPM99 software (Wellcome Department of Cognitive Neurology, London, UK), implemented on the Matlab platform (MathWorks Inc., Sherborn, Mass.). Statistical parametric maps (SPMs) are spatially extended statistical processes that are constructed to test hypotheses about regionally specific effects in neuroimaging data. […]

[3] = cited from earlier work

With `CC12CC3CC(C)(C1)CC(N)(C3)C2` [Memantine, 1-amino-3,5-dimethyladamantane] the “ADCS-ADL Difference (memantine minus placebo, LS mean)” value ([1]; LOCF analysis, p=0.890) was 0.1, the “ADCS-ADL Difference (memantine minus placebo, LS mean)” value ([1]; OC analysis, p=0.975) was 0.0 and the “regional brain glucose metabolic activity (FDG PET) compared to baseline” value ([2]; 5 patients, CNS incl. cerebral cortex, cerebellum, brainstem, p<0.025) was “metabolic increases”. The “regional brain glucose metabolism (FDG PET) compared to baseline” value ([2]; isolated region of left visual cortex and left putamen) was “decreases in glucose metabolism” and the “solubility in aqueous media” value [3] was “highly soluble”.
